Experimental data published in the OPERA property sets (Mansouri et al. 2018).
Peptide text beside a SMILES is read from it.

For `CCCCCNc1nc(NC)nc(SC(F)F)n1`, which logP is on record?
Its logP is 4.42.

With `CCN(CC)C(C)=O` as the compound, how does the logP read?
Its logP is 0.34.

Which logP does the source give for `C#C[C@]1(O)CC[C@H]2[C@@H]3CCc4cc(O)ccc4[C@H]3CC[C@@]21C` here?
The logP was 3.67.

Which logP does the source give for `COP(=S)(OC)Oc1ccc(S(=O)(=O)N(C)C)cc1` here?
The logP was 2.23.

For `CCN(CC)S(=O)(=O)c1ccc(OC)c(N)c1`, which logP is on record?
The logP was 1.7.

For `Oc1ccccc1-c1ccccc1`, which logP is on record?
Its logP is 3.09.

With `O=C(O)CS` as the compound, how does the logP read?
The logP was 0.09.

For `NC(N)=O`, which logP is on record?
The logP was -2.11.

Which logP does the source give for `C=CCNC(=O)NCC=C` here?
Its logP is 0.64.

For `NC(Cc1c[nH]c2cc(F)ccc12)C(=O)O` (configuration not stated), which logP is on record?
The logP was -0.78.

Which logP does the source give for `CCCCCCOC(=O)c1ccc(O)cc1` here?
The logP was 4.35.

For `CC=Cc1c(OC)cc(Cc2cnc(N)nc2N)cc1OCC`, which logP is on record?
The logP was 2.65.

With `C=CCC1=C(C)C(OC(=O)C2C(C=C(C)C)C2(C)C)CC1=O` (configuration not stated) as the compound, how does the logP read?
The logP was 4.78.

Which logP does the source give for `COP(=O)(OC)Oc1ccc([N+](=O)[O-])cc1` here?
Its logP is 1.33.

With `O=C1CN=C(c2ccccc2)c2cc(F)ccc2N1` as the compound, how does the logP read?
The logP was 2.32.

For `c1ccc(OCCOc2ccccc2)cc1`, which logP is on record?
Its logP is 3.81.

Which logP does the source give for `CN1C(=O)SC(=Cc2ccc([N+](=O)[O-])o2)C1=O` here?
Its logP is 1.78.

With `c1ccc(-c2cc(-c3ccccc3)c(NCCN3CCOCC3)nn2)cc1` as the compound, how does the logP read?
The logP was 3.38.

Which logP does the source give for `CCCCC(O)CC` (configuration not stated) here?
The logP was 2.24.

For `CC(Cl)(Cl)Cl`, which logP is on record?
The logP was 2.49.

For `CCCCC1CCCc2ncc(C(=O)OC)c(=O)n21` (configuration not stated), which logP is on record?
The logP was 1.77.

With `O=C(O)Cc1ccccc1Nc1c(Cl)cc(O)cc1Cl` as the compound, how does the logP read?
Its logP is 3.7.

For `CC(Oc1ccccc1)C(=O)N[C@@H]1C(=O)N2[C@@H]1SC(C)(C)[C@@H]2C(=O)O` (some centres not stated), which logP is on record?
Its logP is 2.2.

With `CNC(=O)Oc1ccc(C)c(C)c1` as the compound, how does the logP read?
Its logP is 2.09.

With `O=C(O)COc1ccc(F)cc1` as the compound, how does the logP read?
Its logP is 1.64.

For `CCSCCSP(=O)(OC)OC`, which logP is on record?
The logP was 1.02.

For `CC1=CC(=O)C=C(Br)C1=O`, which logP is on record?
The logP was 1.21.

Which logP does the source give for `CC(=O)OCc1ccc(C)cc1` here?
Its logP is 2.44.

For `O=[N+]([O-])c1ccc(Cl)cc1`, which logP is on record?
Its logP is 2.39.

Which logP does the source give for `CNC(=O)c1ccco1` here?
The logP was 0.23.

For `Brc1cccc(Br)c1`, which logP is on record?
Its logP is 3.75.

Which logP does the source give for `CCCCCCCN` here?
Its logP is 2.57.

For `NC(=S)c1ccccc1`, which logP is on record?
The logP was 1.49.

Which logP does the source give for `CCc1ccc2ccccc2c1` here?
The logP was 4.38.

With `COc1cccc(N(C)C(=S)Oc2cccc(C(C)(C)C)c2)n1` as the compound, how does the logP read?
The logP was 5.18.

Which logP does the source give for `CCC(C)[N+](=O)[O-]` (configuration not stated) here?
The logP was 1.2.

With `Clc1ccc(-c2cc(Cl)ccc2Cl)c(Cl)c1` as the compound, how does the logP read?
The logP was 6.22.

With `CC[C@H](C)[C@H](NC(=O)[C@@H](NC(C)=O)[C@@H](C)O)C(N)=O` (Ac-Thr-Ile-NH2) as the compound, how does the logP read?
The logP was -0.86.

For `FC(F)(F)c1nc2ccc(Br)cc2[nH]1`, which logP is on record?
The logP was 3.57.

With `COP(=S)(OC)SCC(=O)N(C)C=O` as the compound, how does the logP read?
The logP was 1.48.

Which logP does the source give for `O=C(O)COc1cccc([N+](=O)[O-])c1` here?
The logP was 1.37.

For `COc1c(O)cc(Cl)c(Cl)c1Cl`, which logP is on record?
The logP was 3.77.

For `CO`, which logP is on record?
The logP was -0.77.

With `Cc1cc(O)c(C(C)C)cc1Cl` as the compound, how does the logP read?
Its logP is 3.92.

With `CCOC(=O)c1ccc([N+](=O)[O-])cc1` as the compound, how does the logP read?
Its logP is 2.33.

Which logP does the source give for `O=NN(CCCl)C(=O)NC1CCC(C(=O)O)CC1` (configuration not stated) here?
Its logP is 1.68.

For `Nc1cccc2ncccc12`, which logP is on record?
The logP was 1.16.

For `CCOP(=S)(OCC)Oc1cc(C)nc(N(CC)CC)n1`, which logP is on record?
The logP was 4.85.

With `O=C(O)COc1cccc(NC(=O)c2ccccc2)c1` as the compound, how does the logP read?
The logP was 1.99.

With `CCNc1nc(NC(C)C)nc(SC)n1` as the compound, how does the logP read?
Its logP is 2.98.

For `NC(Cc1ccccc1)Cc1ccccc1`, which logP is on record?
The logP was 3.35.

Which logP does the source give for `O=C1C(Cl)=C(Nc2ccccc2)C(=O)c2ccccc21` here?
The logP was 4.22.

For `Nc1ccc(I)cc1`, which logP is on record?
Its logP is 2.34.

With `CCCCCCCN(C)/N=N/c1ccc(C(N)=O)cc1` as the compound, how does the logP read?
The logP was 4.2.

With `COc1ccc(C=CNC=O)cc1` as the compound, how does the logP read?
The logP was 1.94.

With `NC(=O)C(Cl)(Cl)Cl` as the compound, how does the logP read?
The logP was 1.04.

Which logP does the source give for `COC(=O)c1ccc(N=NN(C)C)cc1` here?
Its logP is 3.22.

Which logP does the source give for `O=C(O)CBr` here?
Its logP is 0.41.

Which logP does the source give for `CCCCCOC(N)=O` here?
Its logP is 1.35.

With `C=CCCC=C` as the compound, how does the logP read?
Its logP is 2.87.

With `CCCCCCCBr` as the compound, how does the logP read?
Its logP is 4.36.

With `O=CNc1ccc2[nH]ccc2c1` as the compound, how does the logP read?
The logP was 1.07.

For `O=P1(N(CCCl)CCCl)NCCCO1` (configuration not stated), which logP is on record?
The logP was 0.63.

With `CNC(=O)Oc1cc(C)c(C)cc1C` as the compound, how does the logP read?
The logP was 2.52.

For `CNC(=O)Oc1cccc(C)c1C`, which logP is on record?
The logP was 1.95.

Which logP does the source give for `COc1cccc2c1C(=N)c1c(O)c3c(c(O)c1C2=O)CC(O)(C(O)CO)CC3OC1CC(N2CCOCC2)C(O)C(C)O1` (configuration not stated) here?
The logP was 1.43.

Which logP does the source give for `CC(=O)Nc1cccc(O)c1` here?
The logP was 0.73.

Which logP does the source give for `O=C(CC(=O)C(F)(F)F)c1cccs1` here?
The logP was 1.46.

Which logP does the source give for `CC(C)(C)C1CCN(N=O)CC1` here?
Its logP is 2.54.

With `Cc1ccc(/C(=C\CN2CCCC2)c2ccccn2)cc1` as the compound, how does the logP read?
Its logP is 3.92.

For `CC(=O)N[C@@H](Cc1ccccc1)C(=O)N[C@H](C(N)=O)C(C)C` (Ac-Phe-Val-NH2), which logP is on record?
The logP was 0.43.

With `N#Cc1ccco1` as the compound, how does the logP read?
Its logP is 0.96.

For `OCCCc1cccnc1`, which logP is on record?
Its logP is 0.6.

Which logP does the source give for `Cc1c(Cl)cccc1Nc1ccccc1CC(=O)O` here?
Its logP is 4.64.

With `CCOP(=S)(NC(C)C)Oc1ccccc1C(=O)OC(C)C` (configuration not stated) as the compound, how does the logP read?
Its logP is 4.12.

For `CCN(CC)CCOC(=O)c1ccc(N)cc1Cl`, which logP is on record?
Its logP is 2.86.

With `O=C(O)c1ccc(Oc2ccccc2)cc1` as the compound, how does the logP read?
The logP was 3.91.

Which logP does the source give for `Cc1cc2nc[nH]c2cc1C` here?
Its logP is 2.35.

For `CN(C)CC(F)(F)F`, which logP is on record?
The logP was 1.06.

With `Clc1cccnc1Cl` as the compound, how does the logP read?
The logP was 2.11.

Which logP does the source give for `NS(=O)(=O)Cc1ccccc1` here?
The logP was 0.13.

For `NC(=O)c1cc([N+](=O)[O-])cc([N+](=O)[O-])c1`, which logP is on record?
Its logP is 0.83.
